Measurements published in patent US20140045890A1, “NOVEL COMPOUNDS” (SYNGENTA PARTICIPATIONS AG, priority 2011, published 2014).
Values joined by “and” are separate entries in the source; they are usually repeats but may differ in a detail not shown here. Equal values may be shown once.

Assays:
[1] = system: Blumeria qraminis f. sp. tritici (Erysiphe qraminis f. sp. tritici); test: Blumeria graminis f. sp. tritici / wheat / leaf disc preventative (powdery mildew on wheat); type: in vivo; settings: foliar, wheat leaf segments cv. Kanzler, inoculated 1 day after application, assessed 6-8 days after application, read-out: inhibit fungal infestation (percent disease control compared to untreated)
[2] = system: Phaeosphaeria nodorum (Septoria nodorum); test: Phaeosphaeria nodorum (Septoria nodorum) / wheat / leaf disc preventative (glume blotch); type: in vivo; settings: Parastagonospora nodorum, foliar, wheat leaf segments cv. Kanzler, inoculated 2 days after application, assessed 5-7 days after application, read-out: inhibit fungal infestation (percent disease control compared to untreated)
[3] = system: Plasmopara viticola; test: Plasmopara viticola / grape / leaf disc preventative; type: in vivo; settings: foliar, grape vine leaf disks, inoculated 1 day after application, assessed 6-8 days after application, read-out: inhibit fungal infestation (percent disease control compared to untreated)
[4] = system: Pythium ultimum; test: Pythium ultimum / liquid culture (seedling damping off); type: cell-based; settings: Globisporangium ultimum, liquid culture in PDB, 24° C., 2-3 days after application, read-out: inhibit fungal infestation (inhibition of growth determined photometrically)
[5] = system: Phytophthora infestans; test: whole plant or invertebrate; type: in vivo; settings: in Solanum lycopersicum, foliar, read-out: inhibit fungal infestation (percent disease control compared to untreated)

Row | SMILES | inhibition at 200 ppm [1] [%] | inhibition at 200 ppm [2] [%] | inhibition at 200 ppm [3] [%] | inhibition at 200 ppm [4] [%] | inhibition at 200 ppm [5] [%] | melting point
1 | C#Cc1cnc2ccc(OC(SC)C(=O)NC(C)(C)c3ccccn3)cc2c1 (stereo not drawn) [Compound 33] | ≥ 80 | ≥ 80 | ≥ 80 | ≥ 80 | ≥ 80 | –
2 | C#Cc1cnc2c(Cl)cc(OC(SC)C(=O)NC(C)(C)c3ccccn3)cc2c1 (stereo not drawn) [Compound 10] | ≥ 80 | ≥ 80 | ≥ 80 | ≥ 80 | ≥ 80 | 153 °C
3 | CCc1cc(C(C)(C)NC(=O)C(Oc2ccc3ncc(I)cc3c2)SC)no1 (stereo not drawn) [Compound 23] | ≥ 80 | – | ≥ 80 | ≥ 80 | ≥ 80 | 125 °C
4 | C#Cc1cnc2ccc(OC(SC)C(=O)NC(C)(C)c3nocc3Cl)cc2c1 (stereo not drawn) [Compound 51] | ≥ 80 | ≥ 80 | ≥ 80 | ≥ 80 | ≥ 80 | –
5 | C#Cc1cnc2ccc(OC(SC)C(=O)NCc3ccno3)cc2c1 (stereo not drawn) [Compound 4] | ≥ 80 | – | – | ≥ 80 | ≥ 80 | 115 °C
6 | C#Cc1cnc2c(F)cc(OC(SC)C(=O)NC(C)(C)c3cc(CC)on3)cc2c1 (stereo not drawn) [Compound 21] | ≥ 80 | – | ≥ 80 | ≥ 80 | ≥ 80 | 133 °C
7 | CSC(Oc1ccc2ncc(Br)cc2c1)C(=O)NCc1ccno1 (stereo not drawn) [Compound 3] | ≥ 80 | – | – | ≥ 80 | – | 140 °C
8 | CSC(Oc1ccc2ncc(Br)cc2c1)C(=O)NCc1ccccn1 (stereo not drawn) [Compound 5] | – | – | – | ≥ 80 | – | 104 °C
9 | CSC(Oc1cc(Cl)c2ncc(Br)cc2c1)C(=O)NCc1ccno1 (stereo not drawn) [Compound 1] | ≥ 80 | – | – | – | – | 143 °C
10 | C=Cc1cnc2c(F)cc(OC(OC)C(=O)NC(C)(C)c3ccon3)cc2c1 (stereo not drawn) [Compound 138] | ≥ 80 | – | – | – | – | 118 °C
11 | C#Cc1cnc2ccc(OC(SC)C(=O)NC(C)(C)c3ncc(Cl)s3)cc2c1 (stereo not drawn) [Compound 19] | ≥ 80 | – | ≥ 80 | ≥ 80 | – | 125 °C
12 | C#Cc1cnc2c(C)cc(OC(SC)C(=O)NC(C)(C)c3nocc3C)cc2c1 (stereo not drawn) [Compound 75] | – | ≥ 80 | ≥ 80 | ≥ 80 | – | –
13 | C#Cc1cnc2c(C)cc(OC(SC)C(=O)NC(C)(C)c3cccc(C)n3)cc2c1 (stereo not drawn) [Compound 16] | ≥ 80 | – | ≥ 80 | ≥ 80 | – | 123 °C
14 | C#Cc1cnc2ccc(OC(SC)C(=O)NCc3nccs3)cc2c1 (stereo not drawn) [Compound 29] | ≥ 80 | – | ≥ 80 | ≥ 80 | – | 178 °C
15 | C#Cc1cnc2c(C)cc(OC(SC)C(=O)NC(C)(C)c3ccon3)cc2c1 (stereo not drawn) [Compound 39, 2-[(3-ethynyl-8-methyl-6-quinolyl)oxy]-N-(1-isoxazol-3-yl-1-methyl-ethyl)-2-methylsulfanyl-acetamide] | ≥ 80 | ≥ 80 | ≥ 80 | ≥ 80 | ≥ 80 | –
16 | C#Cc1cnc2c(Cl)cc(OC(SC)C(=O)NCc3nccs3)cc2c1 (stereo not drawn) [Compound 117] | ≥ 80 | ≥ 80 | – | ≥ 80 | – | –
17 | C#Cc1cnc2c(Cl)cc(OC(SC)C(=O)NC(C)(C)c3cc(C)on3)cc2c1 (stereo not drawn) [Compound 68] | ≥ 80 | ≥ 80 | ≥ 80 | ≥ 80 | – | –
18 | C#Cc1cnc2c(C)cc(OC(SC)C(=O)NC(C)(C)c3ccc(Cl)nc3)cc2c1 (stereo not drawn) [Compound 26] | ≥ 80 | – | ≥ 80 | ≥ 80 | – | 120 °C
19 | C#Cc1cnc2c(C)cc(OC(SC)C(=O)NCc3nccs3)cc2c1 (stereo not drawn) [Compound 116] | – | ≥ 80 | – | ≥ 80 | – | –
20 | CSC(Oc1ccc2ncc(I)cc2c1)C(=O)NCc1ccccn1 (stereo not drawn) [Compound 6] | ≥ 80 | – | – | ≥ 80 | – | 109 °C
21 | C#Cc1cnc2ccc(OC(SC)C(=O)NC(C)(C)c3ccon3)cc2c1 (stereo not drawn) [Compound 44] | ≥ 80 | ≥ 80 | ≥ 80 | ≥ 80 | ≥ 80 | –

Row | SMILES | inhibition at 200 ppm [1] [%] | inhibition at 200 ppm [2] [%] | inhibition at 200 ppm [3] [%] | inhibition at 200 ppm [4] [%] | inhibition at 200 ppm [5] [%] | melting point
22 | C#Cc1cnc2ccc(OC(SC)C(=O)NC(C)(C)c3nocc3C)cc2c1 (stereo not drawn) [Compound 78] | ≥ 80 | ≥ 80 | ≥ 80 | ≥ 80 | – | –
23 | C=Cc1cnc2c(Cl)cc(OC(OC)C(=O)NC(C)(C)c3ccccn3)cc2c1 (stereo not drawn) [Compound 134] | ≥ 80 | – | ≥ 80 | ≥ 80 | – | 93 °C
24 | C=Cc1cnc2c(F)cc(OC(CC)C(=O)NC(C)(C)c3cc(CC)on3)cc2c1 (stereo not drawn) [Compound 139] | – | – | ≥ 80 | ≥ 80 | ≥ 80 | 114 °C
25 | C=Cc1cnc2c(F)cc(OC(CC)C(=O)NC(C)(C)c3nccs3)cc2c1 (stereo not drawn) [Compound 137] | ≥ 80 | – | ≥ 80 | ≥ 80 | ≥ 80 | 102 °C
26 | C#Cc1cnc2ccc(OC(SC)C(=O)NC(C)(C)c3cc(Cl)on3)cc2c1 (stereo not drawn) [Compound 73] | ≥ 80 | ≥ 80 | ≥ 80 | ≥ 80 | ≥ 80 | –
27 | C#Cc1cnc2c(Cl)cc(OC(SC)C(=O)NC(C)(C)c3cc(CC)on3)cc2c1 (stereo not drawn) [Compound 22] | ≥ 80 | – | ≥ 80 | ≥ 80 | ≥ 80 | 157 °C
28 | C#Cc1cnc2c(Cl)cc(OC(SC)C(=O)NC(C)(C)c3cccc(C)n3)cc2c1 (stereo not drawn) [Compound 113] | ≥ 80 | ≥ 80 | – | ≥ 80 | – | –
29 | C#Cc1cnc2c(C)cc(OC(SC)C(=O)NC(C)(C)c3cc(C)ccn3)cc2c1 (stereo not drawn) [Compound 17] | ≥ 80 | – | ≥ 80 | ≥ 80 | – | 82 °C
30 | C#Cc1cnc2ccc(OC(SC)C(=O)NC(C)(C)c3nc(C)cs3)cc2c1 (stereo not drawn) [Compound 28] | ≥ 80 | – | ≥ 80 | ≥ 80 | ≥ 80 | 97 to 99 °C and 97 °C
31 | COC(Oc1cc(Cl)c2ncc(Br)cc2c1)C(=O)NC(C)(C)c1ccccn1 (stereo not drawn) [Compound 14] | – | – | – | – | – | 95 °C
32 | COC(Oc1cc(Cl)c2ncc(Br)cc2c1)C(=O)NC(C)(C)c1nccs1 (stereo not drawn) [Compound 140] | ≥ 80 | – | – | – | – | 111 °C
33 | C=Cc1cnc2c(Cl)cc(OC(CC)C(=O)NC(C)(C)c3ccon3)cc2c1 (stereo not drawn) [Compound 136] | ≥ 80 | – | – | ≥ 80 | – | 104 °C
34 | C#Cc1cnc2ccc(OC(SC)C(=O)NC(C)(C)c3ccc(Cl)nc3)cc2c1 (stereo not drawn) [Compound 27] | – | – | – | ≥ 80 | – | 114 °C
35 | C#Cc1cnc2c(C)cc(OC(SC)C(=O)NC(CC)c3ccccn3)cc2c1 (stereo not drawn) [Compound 60] | ≥ 80 | ≥ 80 | – | ≥ 80 | – | –
36 | C#Cc1cnc2ccc(OC(SC)C(=O)NCc3nc(C)c(C)s3)cc2c1 (stereo not drawn) [Compound 31] | ≥ 80 | – | – | ≥ 80 | ≥ 80 | 126 °C
37 | CSC(Oc1ccc2ncc(I)cc2c1)C(=O)NCc1ccno1 (stereo not drawn) [Compound 2] | ≥ 80 | – | – | ≥ 80 | – | 153 °C
38 | C#Cc1cnc2c(C)cc(OC(SC)C(=O)NC(C)(C)c3nocc3Br)cc2c1 (stereo not drawn) [Compound 45, N-[1-(4-bromoisoxazol-3-yl)-1-methyl-ethyl]-2-[(3-ethynyl-8-methyl-6-quinolyl)oxy]-2-methylsulfanyl-acetamide] | ≥ 80 | ≥ 80 | ≥ 80 | ≥ 80 | – | 63 to 65 °C
39 | C#Cc1cnc2cc(F)c(OC(SC)C(=O)NC(C)(C)c3cccc(C)n3)cc2c1 (stereo not drawn) [Compound 111] | ≥ 80 | ≥ 80 | – | ≥ 80 | – | –
40 | C#Cc1cnc2ccc(OC(SC)C(=O)NCc3nc(C)cs3)cc2c1 (stereo not drawn) [Compound 30] | ≥ 80 | – | ≥ 80 | ≥ 80 | ≥ 80 | 115 °C
41 | C#Cc1cnc2ccc(OC(SC)C(=O)NCc3ccccn3)cc2c1 (stereo not drawn) [Compound 25] | ≥ 80 | – | – | ≥ 80 | ≥ 80 | 133 °C
42 | C#Cc1cnc2ccc(OC(SC)C(=O)NC(C)(C)c3cc(C)on3)cc2c1 (stereo not drawn) [Compound 53] | ≥ 80 | ≥ 80 | ≥ 80 | ≥ 80 | ≥ 80 | –
